Test [1] has as its target T1, MMP-9 (Homo sapiens, UniProt P14780).
T1 construct: Das latente Enzym wird durch 30 - 60 min; Inkubation bei 37°C mit 1/100 Vol. Trypsin (10 mg/ml) aktiviert; from tissue; host or cells: human buffy coat (blood leukocytes)
Description: Quantitative fluorescence assay for matrix metalloproteinases (cleavage of Mca-Pro-Leu-Gly-Leu-Dpa-Ala-Arg-NH2). It counts as biochemical. The settings on record: bei 10 µM. Here is the method: Native MMP-9 wurde reproduzierbar und in guter Ausbeute und Reinheit aus humanem Buffy Coat gewonnen. Hierzu wird Buffy Coat mit 10% (v/v) Triton X-100 auf eine Endkonzentration von 0,4% gebracht, 30 min. auf Eis geschüttelt und dann 1 Vol. 2-fach Bindungspuffer (40 mM Tris-HCI pH 7,5, 10 mM CaCl2, 1 M NaCI, 0,2% (v/v) Triton X-100) hinzugefügt und weitere 30 min. auf Eis geschüttelt. Die Lösung wird 15 min. bei 16 000 Upm an einem SS-34 Rotor bei 4°C abzentrifugiert und über Glaswolle filtriert. Das Filtrat wird mit Gelatine-Agarose, welche mit Bindungspuffer äquilibriert wurde, gebatcht und 1 Std. auf Eis geschüttelt. Die beladene Gelatine-Agarose wird in eine Säule überführt und mit mindestens 10 Vol. Bindungspuffer proteinfrei gespült. Die Elution der gebundenen MMP-9 erfolgt mit 2 Gelvolumen Bindungspuffer plus 5% (v/v) DMSO. Das Eluat kann zum Puffer-Austausch und gleichzeitiger Abtrennung geringer Verunreinigungen an MMP-2 über eine Gelfiltration an Sephadex G-75 aufgetrennt werden. Hierzu wird der Puffer I (20 mM Tris-HCI pH 7,5, 5 mM CaCl2, 100 mM NaCI, 0,1% (v/v) Triton X-100) verwendet. Das so gewonnene Eluat enthällt MMP-9 in den drei bekannten Zustandsformen: Monomer, Homodimer, Heterodimer. Die Reinheit des Enzyms beträgt ca. 90%, wobei die restlichen Fremdproteine Fibronektin und äußerst geringe Mengen an TIMP's sind. Das latente Enzym wird durch 30 - 60 min. Inkubation bei 37°C mit 1/100 Vol. Trypsin (10 mg/ml) aktiviert. Trypsin wird durch Zugabe von 1 mM PMSF oder mit einem spezifischen Inhibitor (TKI) gehemmt.
(§1) Durch enzymatische Spaltung des synthetischen Substrates Mca-Pro-Leu-Gly-Leu-Dpa-Ala-Arg-NH2 durch die jeweilige Kollagenase, wird die fluoreszente Gruppe Mca ((7-Methoxycoumarin-4-yl)acetyl) vom internen Quencher Dpa ((N-3-(2,4-dinitrophenyl)-L-2,3-diaminopropienyl) getrennt. Dabei erfolgt eine starke Zunahme der Fluoreszenz im Messansatz, die am Fluorimeter quantifiziert werden kann (λex 328 nm, λem 393 nm) und innerhalb der ersten Minuten linear verläuft. Eine gewisse Spezifität des Tests für Matrix-Metalloproteinasen ergibt sich einerseits aus der Aminosäuresequenz -Pro-Leu-Gly-Leu- im Substrat und andererseits durch die gewählten Inkubationsbedingungen. Matrix-Metalloproteinasen spalten das Substrat an der Bindung Gly-Leu. Gemessen wird die proteolytische Restaktivität vorinkubierter Ansätze von Enzym und Inhibitor, wobei die Substrat- und Enzymkonzentration konstant gehalten und die Inhibitorkonzentration variiert wurde. Es wurden für jeden getesteten Inhibitor drei Messreihen mit unterschiedlicher Substratkonzentration aufgenommen. Aus der zeitabhängigen Fluoreszenzzunahme wird die Enzymaktivität in Fluoreszenzeinheiten pro min berechnet. Die Bestimmung der Ki-Werte erfolgte graphisch nach der Methode von DIXON (1953) durch Auftragung der reziproken Reaktionsgeschwindigkeit 1/v (y-Achse) gegen Inhibitorkonzentration (x-Achse).
(§2) 1984 µl Messpuffer (100mM Tris-HCI pH 7,5, 100 mM NaCI, 10 mM CaCl2, 0,05% Brij 35 bzw. 50 mM MES-NaOH, pH 6.0, 10 mM CaCl2, 100 mM NaCI, 0.05% Brij 35 im Fall der KaDo MMP-3) 2 µl Inhibitor, gelöst in DMSO, bzw. DMSO allein (nichtinhibierender Ansatz) 4 µl Enzym • 5 min. Vorinkubation des Enzym-Inhibitor-Gemischs bei Raumtemperatur unter Rühren • Start der Reaktion mit 10 µl Substrat gelöst in DMSO • Aufzeichnung der zeitabhängigen Fluoreszenzzunahme über 2 - 10 min.

The target of test [2] is T2, katalytische Domäne der MMP-8 (Homo sapiens, UniProt P22894).
T2 construct: dass wir statt des Gesamtenzyms nur dessen enzymatisch aktive katalytische Domäne in E. coli klonierten; made in house; host or cells: E. coli
T2 sequence (P22894 100-262 limits assumed): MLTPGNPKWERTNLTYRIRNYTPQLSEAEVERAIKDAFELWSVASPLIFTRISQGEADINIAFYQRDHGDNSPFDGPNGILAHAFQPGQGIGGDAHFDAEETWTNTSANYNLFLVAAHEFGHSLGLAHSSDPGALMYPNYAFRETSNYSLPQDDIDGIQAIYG
The test is described as above. Type of test: biochemical.
Description: Die Nutzung der katalytischen Domäne der MMP-8 als weiteres Testenzym wurde deshalb gewählt, weil es eine hohe Stabilität besitzt und darüber hinaus als aktives Enzym vorliegt. Es muß deshalb nicht aktiviert werden, was eine der häufigsten Fehlerursachen darstellt, da die zur Aktivierung genutzten Quecksilberverbindungen häufig mit dem Testsystem bzw. dem Enzym interferieren und dadurch die Messergebnisse verfälschen werden. Die Klonierungsstrategie gestalteten wir so, dass wir statt des Gesamtenzyms nur dessen enzymatisch aktive katalytische Domäne in E. coli klonierten. Mit der konstruierten katalytischen Domäne der MMP-8 erzielten wir ein stabiles, enzymatisch aktives und hochreines Enzym, welches für die Routineuntersuchungen der inhibitorischen Aktivität der synthetisierten Inhibitoren sehr gut geeignet war und die Messergebnisse der einzelnen Messserien miteinander vergleichbar machte. Die Klonierung und Expression der katalytischen Domäne der MMP-8 wurde entsprechend den Angaben von SCHNIERER et al. (Schnierer S, Kleine T, Gote T, Hillemann A, Knäuper V, Tschesche H: The recombinant catalytic domain of human neutrophil collagenase lacks type I collagen substrate specificity. Biochem Biophys Res Comm (1993) vol. 191 No. 2, 319-326) durchgeführt.
as §1, §2

T1 sequence (P14780 107-707 limits assumed): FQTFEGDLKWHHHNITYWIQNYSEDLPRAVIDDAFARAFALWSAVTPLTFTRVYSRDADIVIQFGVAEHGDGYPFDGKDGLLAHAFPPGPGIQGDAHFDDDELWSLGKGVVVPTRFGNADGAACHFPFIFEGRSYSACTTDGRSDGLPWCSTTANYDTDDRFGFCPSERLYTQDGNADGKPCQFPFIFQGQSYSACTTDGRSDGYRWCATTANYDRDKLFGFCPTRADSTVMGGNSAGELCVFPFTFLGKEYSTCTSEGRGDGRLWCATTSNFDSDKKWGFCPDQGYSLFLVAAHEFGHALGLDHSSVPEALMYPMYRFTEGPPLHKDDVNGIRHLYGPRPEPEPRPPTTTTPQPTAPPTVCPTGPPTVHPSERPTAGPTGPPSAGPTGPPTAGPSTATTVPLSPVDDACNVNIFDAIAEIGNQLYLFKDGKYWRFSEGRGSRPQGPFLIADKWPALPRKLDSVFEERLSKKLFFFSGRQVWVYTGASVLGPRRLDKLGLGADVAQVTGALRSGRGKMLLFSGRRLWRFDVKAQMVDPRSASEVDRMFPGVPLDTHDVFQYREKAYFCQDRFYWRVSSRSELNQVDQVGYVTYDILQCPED

For the compound `CC(S)(CS)Cn1c(=O)[nH]c2ccccc2c1=O` (racemic) [Beispiel 2, (R,S)-3-(2,3-Dimercapto-2-methylpropyl)chinazolin-2,4-(1H,3H)dion], the “MMP-9 Hemmung” value in test [1] worked out at 10% Hemmung bei 10 µM. Also, affinity in test [2] (Dixon plot) was put at a Ki of 60 µM.
As for `Cc1cccc2c(=O)n(CC(S)CS)c(=O)[nH]c12` (racemic) [Beispiel 6, (R,S)-3-(2,3-Dimercaptopropyl)-8-methyl-chinazolin-2,4-(1H,3H)dion], the “MMP-9 Hemmung” value in test [1] is 55% Hemmung bei 10 µM. In addition, in test [2] (bei 10 µM), the “MMP-8 Hemmung” value stood at 43% Hemmung bei 10 µM.

Broadly, the Ki is the equilibrium dissociation constant of an inhibitor or competing ligand from its target. High values mean weaker binding, low ones tighter binding.

Values taken from patent EP1357114A1, “Substituted pyrimidin-2,4(1H,3H)-diones as inhibitors of Matrix Metalloproteinases (MMP)” (IBFB GmbH Privates Institut für biomedizinische Forschung …, priority 2002, dated 2003).
